In patent US20100311714A1, “1H-IMIDAZO[4,5-c]QUINOLINONE COMPOUNDS” (priority 2009, published 2010):
Like-named read-outs stand apart in the source and are kept apart here.

What was measured:
[1] = system: S6 Ribosomal Protein phosphorylation Ser235/236 in TSC1 null mouse embryo fibroblast (MEF) cells; experiment: Reverse protein array, S6 Ribosomal Protein phosphorylation in TSC1 null MEF cells; assay type: cell-based; settings: 1 h, TSC1-/- MEFs, 60 minutes
Outline: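 Phospho-S6 (Ser235/236) was quantified by reverse protein array of cell lysates with a phospho-specific primary antibody. […]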

[2] = system: PKB Ser473 phosphorylation in Rat1-myr-HA-p110 alpha cells; experiment: Reverse protein array, PKB Ser473 phosphorylation in Rat1-myr-HA-p110 alpha cells; assay type: cell-based; settings: Rattus norvegicus, 0.5 h, 30 minutes compound incubation, read-out: p-PKB/IC50_alpha

SMILES	IC50 ([1]; read-out: p-S6 IC50)	IC50 [2]	IC50 ([1]; read-out: p-S6)
Cc1nc(N2CC(F)(F)C2)ccc1-n1c(=O)n(C)c2cnc3ccc(-c4cncc(C(C)(C)O)c4)cc3c21 [Example 24.2, 1-[6-(3,3-Difluoro-azetidin-1-yl)-2-methyl-pyridin-3-yl]-8-[5-(1-hydroxy-1-methyl-ethyl)-pyridin-3-yl]-3-methyl-1,3-dihydro-imidazo[4,5-c]quinolin-2-one]	1 nM	17.5 nM	
COc1ccc(-c2ccc3ncc4c(c3c2)n(-c2cccnc2OC)c(=O)n4C)cn1 [Example 1.1, 1-(2-Methoxy-pyridin-3-yl)-8-(6-methoxy-pyridin-3-yl)-3-methyl-1,3-dihydro-imidazo[4,5-c]quinolin-2-one]		42.9 nM	24.5 nM
CNc1ncc(-c2ccc3ncc4c(c3c2)n(-c2ccc(N(C)CCOC)nc2C)c(=O)n4C)cn1 [Example 15.2, 1-{6-[(2-Methoxy-ethyl)-methyl-amino]-2-methyl-pyridin-3-yl}-3-methyl-8-(2-methylamino-pyrimidin-5-yl)-1,3-dihydro-imidazo[4,5-c]quinolin-2-one]	7 nM	5 nM	
Cc1nc(F)ccc1-n1c(=O)n(C)c2cnc3ccc(-c4cncc(N)c4)cc3c21 [Example 7.16, 8-(5-Amino-pyridin-3-yl)-1-(6-fluoro-2-methyl-pyridin-3-yl)-3-methyl-1,3-dihydro-imidazo[4,5-c]quinolin-2-one]	26 nM	30.3 nM	
CNc1ccc(-c2ccc3ncc4c(c3c2)n(-c2ccc(OCCOC)nc2C)c(=O)n4C)cn1 [Example 13.3, 1-[6-(2-Methoxy-ethoxy)-2-methyl-pyridin-3-yl]-3-methyl-8-(6-methylamino-pyridin-3-yl)-1,3-dihydro-imidazo[4,5-c]quinolin-2-one]	3 nM	5 nM	
CCNc1cc(-c2ccc3ncc4c(c3c2)n(-c2ccc(N3CC(F)(F)C3)nc2C)c(=O)n4C)cnc1CO [Example 24.3, 1-[6-(3,3-Difluoro-azetidin-1-yl)-2-methyl-pyridin-3-yl]-8-(5-ethylamino-6-hydroxymethyl-pyridin-3-yl)-3-methyl-1,3-dihydro-imidazo[4,5-c]quinolin-2-one]	< 0.457 nM	5.9 nM	
Cc1ccc(-n2c(=O)n(C)c3cnc4ccc(-c5cnc(N)c(C(F)(F)F)c5)cc4c32)c(C)n1 [Example 14.5, 8-(6-Amino-5-trifluoromethyl-pyridin-3-yl)-1-(2,6-dimethyl-pyridin-3-yl)-3-methyl-1,3-dihydro-imidazo[4,5-c]quinolin-2-one]	1 nM	4.9 nM	
Cc1nc(N2CCC(O)C2)ccc1-n1c(=O)n(C)c2cnc3ccc(-c4cncc(OC(C)C)c4)cc3c21 (stereo not drawn) [Example 27.1, 1-[6-(3-Hydroxy-pyrrolidin-1-yl)-2-methyl-pyridin-3-yl]-8-(5-isopropoxy-pyridin-3-yl)-3-methyl-1,3-dihydro-imidazo[4,5-c]quinolin-2-one]	2 nM	41.1 nM	
CCNc1cc(-c2ccc3ncc4c(c3c2)n(-c2ccc(N(C)CCOC)nc2C)c(=O)n4C)cnc1C [Example 15.6, 8-(5-Ethylamino-6-methyl-pyridin-3-yl)-1-{6-[(2-methoxy-ethyl)-methyl-amino]-2-methyl-pyridin-3-yl}-3-methyl-1,3-dihydro-imidazo[4,5-c]quinolin-2-one]	3 nM	4.8 nM	
Cc1ccc(-n2c(=O)n(C)c3cnc4ccc(-c5cncc(NC(C)C)c5)cc4c32)c(C)n1 [Example 14.8, 1-(2,6-Dimethyl-pyridin-3-yl)-8-(5-isopropylamino-pyridin-3-yl)-3-methyl-1,3-dihydro-imidazo[4,5-c]quinolin-2-one]	2 nM	9 nM	
CCOc1ccc(-c2ccc3ncc4c(c3c2)n(-c2ccc(C)nc2C)c(=O)n4C)cn1 [Example 14.2, 1-(2,6-Dimethyl-pyridin-3-yl)-8-(6-ethoxy-pyridin-3-yl)-3-methyl-1,3-dihydro-imidazo[4,5-c]quinolin-2-one]	16 nM	20.4 nM	
Cc1nc(N2CC(F)(F)C(F)(F)C2)ccc1-n1c(=O)n(C)c2cnc3ccc(-c4cncc(C(C)(C)O)c4)cc3c21 [Example 35.1, 8-[5-(1-Hydroxy-1-methyl-ethyl)-pyridin-3-yl]-3-methyl-1-[2-methyl-6-(3,3,4,4-tetrafluoro-pyrrolidin-1-yl)-pyridin-3-yl]-1,3-dihydro-imidazo[4,5-c]quinolin-2-one]	0.79 nM	14.6 nM	
CCNc1cc(-c2ccc3ncc4c(c3c2)n(-c2ccc(N(C)CC)nc2C)c(=O)n4C)cnc1C [Example 12.2, 8-(5-Ethylamino-6-methyl-pyridin-3-yl)-1-[6-(ethyl-methyl-amino)-2-methyl-pyridin-3-yl]-3-methyl-1,3-dihydro-imidazo[4,5-c]quinolin-2-one]	3 nM	< 4.57 nM	
COCCN(C)c1ccc(-n2c(=O)n(C)c3cnc4ccc(-c5cnc(N(C)C)nc5)cc4c32)c(C)n1 [Example 15.5, 8-(2-Dimethylamino-pyrimidin-5-yl)-1-{6-[(2-methoxy-ethyl)-methyl-amino]-2-methyl-pyridin-3-yl}-3-methyl-1,3-dihydro-imidazo[4,5-c]quinolin-2-one]	19 nM	40.7 nM	
CNc1ccc(-c2ccc3ncc4c(c3c2)n(-c2cnc(F)cc2C)c(=O)n4C)cn1 [Example 16.4, 1-(6-Fluoro-4-methyl-pyridin-3-yl)-3-methyl-8-(6-methylamino-pyridin-3-yl)-1,3-dihydro-imidazo[4,5-c]quinolin-2-one]	5 nM	30.7 nM	
COCc1ncc(-c2ccc3ncc4c(c3c2)n(-c2ccc(OC)nc2OC)c(=O)n4C)cc1OC [Example 8.12, 1-(2,6-Dimethoxy-pyridin-3-yl)-8-(5-methoxy-6-methoxymethyl-pyridin-3-yl)-3-methyl-1,3-dihydro-imidazo[4,5-c]quinolin-2-one]	4 nM	27.7 nM	
COc1ncccc1-n1c(=O)n(C)c2cnc3ccc(-c4cnc(N(C)C)nc4)cc3c21 [Example 1.9, 8-(2-Dimethylamino-pyrimidin-5-yl)-1-(2-methoxy-pyridin-3-yl)-3-methyl-1,3-dihydro-imidazo[4,5-c]quinolin-2-one]		57.6 nM	32.8 nM
CNc1ccc(-c2ccc3ncc4c(c3c2)n(-c2cccnc2OC)c(=O)n4C)cn1 [Example 1.4, 1-(2-Methoxy-pyridin-3-yl)-3-methyl-8-(6-methylamino-pyridin-3-yl)-1,3-dihydro-imidazo[4,5-c]quinolin-2-one]		8.68 nM	8.24 nM
CNc1ncc(-c2ccc3ncc4c(c3c2)n(-c2ccc(OCCOC)nc2C)c(=O)n4C)cn1 [Example 13.5, 1-[6-(2-Methoxy-ethoxy)-2-methyl-pyridin-3-yl]-3-methyl-8-(2-methylamino-pyrimidin-5-yl)-1,3-dihydro-imidazo[4,5-c]quinolin-2-one]	1.1 nM	6.9 nM	
CNc1ncc(-c2ccc3ncc4c(c3c2)n(-c2cccnc2C)c(=O)n4C)cn1 [Example 2.2, 3-Methyl-8-(2-methylamino-pyrimidin-5-yl)-1-(2-methyl-pyridin-3-yl)-1,3-dihydro-imidazo[4,5-c]quinolin-2-one]		15.9 nM	5.33 nM
COc1ncccc1-n1c(=O)n(C)c2cnc3ccc(-c4cnc(N)c(C(F)(F)F)c4)cc3c21 [Example 1.3, 8-(6-Amino-5-trifluoromethyl-pyridin-3-yl)-1-(2-methoxy-pyridin-3-yl)-3-methyl-1,3-dihydro-imidazo[4,5-c]quinolin-2-one]		6.94 nM	1.52 nM
CCNc1cc(-c2ccc3ncc4c(c3c2)n(-c2ccc(OC)nc2C)c(=O)n4C)cnc1C [Example 11.7, 8-(5-Ethylamino-6-methyl-pyridin-3-yl)-1-(6-methoxy-2-methyl-pyridin-3-yl)-3-methyl-1,3-dihydro-imidazo[4,5-c]quinolin-2-one]	2 nM	4.9 nM	
CCOc1ccc(-c2ccc3ncc4c(c3c2)n(-c2ccc(N(C)C)nc2C)c(=O)n4C)cn1 [Example 19.3, 1-(6-Dimethylamino-2-methyl-pyridin-3-yl)-8-(6-ethoxy-pyridin-3-yl)-3-methyl-1,3-dihydro-imidazo[4,5-c]quinolin-2-one]	2 nM	6.8 nM	
COc1ncccc1-n1c(=O)n(C)c2cnc3ccc(-c4cnc5c(ccn5C)c4)cc3c21 [Example 1.7, 1-(2-Methoxy-pyridin-3-yl)-3-methyl-8-(1-methyl-1H-pyrrolo[2,3-b]pyridin-5-yl)-1,3-dihydro-imidazo[4,5-c]quinolin-2-one]		5.44 nM	12.1 nM
CCNc1cc(-c2ccc3ncc4c(c3c2)n(-c2ccc(OC)nc2Cl)c(=O)n4C)cnc1C [Example 18.1, 1-(2-Chloro-6-methoxy-pyridin-3-yl)-8-(5-ethylamino-6-methyl-pyridin-3-yl)-3-methyl-1,3-dihydro-imidazo[4,5-c]quinolin-2-one]	< 0.457 nM	< 4.57 nM	
COCCN(C)c1ccc(-n2c(=O)n(C)c3cnc4ccc(-c5cnc6c(ccn6C)c5)cc4c32)c(C)n1 [Example 15.7, 1-{6-[(2-Methoxy-ethyl)-methyl-amino]-2-methyl-pyridin-3-yl}-3-methyl-8-(1-methyl-1H-pyrrolo[2,3-b]pyridin-5-yl)-1,3-dihydro-imidazo[4,5-c]quinolin-2-one]	2 nM	9.6 nM	
COCCOc1ccc(-n2c(=O)n(C)c3cnc4ccc(-c5cncc(N6CCC6)c5)cc4c32)c(C)n1 [Example 22.2, 8-(5-Azetidin-1-yl-pyridin-3-yl)-1-[6-(2-methoxy-ethoxy)-2-methyl-pyridin-3-yl]-3-methyl-1,3-dihydro-imidazo[4,5-c]quinolin-2-one]	2 nM	6.4 nM	
